The values below come from publication PMC8287944, “5-Fluorouracil blocks quorum-sensing of biofilm-embedded methicillin-resistant Staphylococcus aureus in mice” (Nucleic Acids Research, 2021).

Each structure is given as a SMILES string.

In assay [1] the test system is MRSA ATCC 43300. Nature of the assay: Murine tissue cage (foreign-body) infection model, prophylaxis. Type of assay: in vivo, Staphylococcus aureus. The following applies: C57BL/6 mice, prophylactic treatment. The procedure:
To evaluate the prophylactic efficacy of 5-FU against MRSA infection, we used our murine model of foreign-body infection, which closely mimics human implant-associated infections. This model of foreign-body infection ([26],[27]) was established with the approval of the Kantonale Veterinaeramt Basel-Stadt, Switzerland (permit no. 1710). Experiments were conducted according to the regulations of Swiss veterinary law and performed in the animal house of the Department of Biomedicine, University Hospital Basel, Switzerland. Healthy wild-type female C57BL/6 mice at 13 weeks of age (JanvierLabs, France) kept under specific pathogen-free conditions (biosafety level 2) were anesthetized, followed by the subcutaneous implantation of sterile cylindrical Teflon tissue cages (8.5 × 1 × 30 mm; volume: 1.9 ml) with 130 regularly spaced holes (Angst + Pfister AG, Zurich, Switzerland). They were housed in a 12 hr light/dark cycle (light from 7 am to 7 pm) in a temperature-controlled room (24°C) with free access to regular mice chow and water. Mice were randomly assigned to experimental groups, which were not involved in previous procedures. The mice were randomized into groups, which were treated as follows: saline (untreated growth control; n = 7), saline with 5.2844 mg/kg DPD (n = 4), 50 mg/kg daptomycin (DAP) (Novartis, Basel, Switzerland) (n = 11), 10 mg/kg 5-FU with and without 50 mg/kg DAP (each n = 8), 40 mg/kg 5-FU with or without 50 mg/kg DAP (n = 16 and n = 13, respectively), 40 mg/kg 5-FU with 1 μM DPD (n = 6), or 40 mg/kg 5-FU with 50 mg/kg DAP and 5.2844 mg/kg DPD (n = 8). DAP was given intraperitoneally immediately before implantation, and 5-FU and DPD was given immediately after implantation directly into the lumen of the cage. Afterwards, the cages were infected with 965 CFU of MRSA 43300. At 2 days post-infection, tissue cage fluid was collected, and the planktonic bacterial load was evaluated by plating on blood agar plates. In additional, mice were sacrificed and the tissue cages were explanted under aseptic conditions. The explanted tissue cages were washed twice with phosphate-buffered saline followed by 30 s vortexing, sonication for 3 min at 130 W and another 30 s vortexing to release adherent bacteria from the biofilm. Quantification of adherent bacteria was performed by plating appropriated dilutions on blood agar plates. To determine the prevention rate, the presence of any re-growth of MRSA was examined by further incubation of the cage in tryptic soy broth (TSB) for 48 h at 37°C. MRSA re-growth represents therapy failure, and the prevention rate was defined as the percentage of cages without growth in each treatment group.
Figure 6. Prophylactic effect of 5-FU against MRSA ATCC 43300 in a murine tissue cage infection model. Read-outs were obtained two days after infection with 965 CFU/cage and treatment with saline, saline with 1 μM AI-2, 50 mg/kg daptomycin (DAP), 10 mg/kg 5-FU with or without 50 mg/kg DAP, 40 mg/kg 5-FU with or without 50 mg/kg DAP or 40 mg/kg 5-FU with 50 mg/kg DAP and 5.2844 mg/kg DPD, as indicated below the panels. (A) Effect on planktonic MRSA 43300 two days post-infection. (B) Effect on adherent MRSA after explantation and sonication. (C) Prevention rate. Values in (A) and (B) are median ± IQR and those in (C) are % ([…]; **P < 0.001; ****P < 0.0001; ns, not significant). TEXT PRINTED IN THE PICTURE: (C) DAP: prevention rate (%): 18 | (C) DAP + 5-FU (10): prevention rate (%): 75 | (C) DAP + 5-FU (40): prevention rate (%): 94 | (C) DAP + 5-FU (40) + DPD: prevention rate (%): 12.5 DOUBTS OF THE COPYIST ABOUT THIS PICTURE: Panel C, DAP, prevention rate: 18 or 16 (small print) / Panel C, DAP + 5-FU (10), prevention rate: 75 or 76 (small print) / Panel C: which treatment belongs to each bar was read from the small +/- grid under the plot, so the column alignment is not fully certain

Assay [2] has as its system MRSA ATCC 43300. Kind of assay: Biofilm formation (Crystal Violet). Type of assay: cell-based, Staphylococcus aureus. The following applies: 0.1 μM 5-FU, 24 h. The method, then:
To quantify the formation of bacterial biofilms, bacteria were grown for 24 h in the presence of potential inhibitors in 96-well polystyrene plates. The plates were then washed three times with distilled water. Remaining cells were stained with 0.1% Crystal Violet solution (5% methanol, 5% isopropanol) and further washed to remove excess dye. Crystal Violet was redissolved in 20% acetic acid solution and the absorbance of the solution was measured at 600 nm.
(§1) Figure 4. Bioactivity of 5-FU against MRSA ATCC 43300. (A) Quorum sensing-associated AI-2 activity of MRSA 43300 grown for 3 h with different 5-FU concentrations. (B) Effect of different 5-FU concentrations on MRSA 43300 growth. (C) Interference with biofilm formation. (D) Effect on adherent MRSA 43300. Data points represent three biological replicates expressed as mean ± SD (**P < 0.01; ***P < 0.001; ****P < 0.0001).

The subject of assay [3] is MRSA ATCC 43300. Nature of the assay: AI-2 activity of MRSA ATCC 43300. The format is cell-based, Staphylococcus aureus. The settings on record: MRSA ATCC 43300, 3 h, different 5-FU concentrations. The procedure: To confirm that the phenotype could be restored, 1 μM synthetic (S)-4,5-dihydroxy-2,3-pentanedione (DPD) (Biosynth Carbosynth, Staad, Switzerland) was used. After 3 h under static conditions at 37°C, the supernatant was analysed for AI-2 activity with V. harveyi (MM32).
as §1
Figure 5. Phenotype restoration with synthetic AI-2 supplementation. AI-2 activity of MRSA ATCC 43300 was evaluated with and without 1 μM DPD in the presence of different 5-FU concentrations. The dashed line indicates the baseline level of AI-2 of MRSA ATCC 43300 in the absence of 5-FU. Values represent 3 biological replicates expressed as mean ± SD (**P < 0.01; ****P < 0.0001).

Assay [4] has as its system MRSA ATCC 43300. Nature of the assay: Adherent MRSA quantification (CFU plating). The following applies: 0.1 μM 5-FU, 24 h. The format is cell-based, Staphylococcus aureus. The method, then:
To quantify the amount of adherent bacteria, 2 – 3 × 10^5 CFU/ml MRSA were grown for 24 h in the presence of different 5-FU concentrations. After incubation under static conditions at 37°C, the plate was washed twice with PBS. Adherent bacteria were removed with 100 μl PBS and appropriate dilutions were plated on Mueller-Hinton agar (Becton Dickinson AG, Allschwil, Switzerland) plates overnight at 37°C. Three independent experiments were performed, each performed in triplicate, and the mean values were calculated. Dimethyl sulfoxide (DMSO) was used as a control.
as §1

Assay [5] relates to MRSA ATCC 43300. Nature of the assay: MRSA 43300 growth. The format is cell-based, Staphylococcus aureus. The following applies: 0.1 μM 5-FU. The method, then:
as §1

On to `O=c1[nH]cc(F)c(=O)[nH]1` [5-Fluorouracil], for which the “Effect on biofilm / adherent MRSA” value in the assay with MRSA ATCC 43300 [1] (explanted cages 2 days post-infection) is “neither 5-FU nor DAP alone was sufficient to contain the infection”. In addition, in the assay with MRSA ATCC 43300 [1] (tissue cage fluid 2 days post-infection), the “Effect on planktonic MRSA infection” value is “failed to clear planktonic MRSA infections”. In addition, in the assay on MRSA ATCC 43300 [2], the “Biofilm formation of MRSA” value was “significantly decreased biofilm formation”. The “AI-2 production and quorum-sensing capacity of MRSA” value in the assay with MRSA ATCC 43300 [3] is recorded as “dose-dependently reduced”. In the assay with MRSA ATCC 43300 [4], the “Number of adherent MRSA” value is recorded as “reduced the number of adherent MRSA”. Besides, the “Bacterial growth of MRSA” value with MRSA ATCC 43300 [5] is recorded as “significantly decreased bacterial growth”.
